From US6967213B2, “Isothiazole derivatives, process for the preparation thereof, and pharmaceutical composition including the same” (CJ Corp., priority 2003, dated 2005)

Columns and labels:
cyclooxygenase-1 = target: T1, cyclooxygenase-1 (Homo sapiens, UniProt P23219); assay: Inhibitive effects against cyclooxygenase-1 using U-937 (PGE2 quantitation); type: cell-based; settings: U-937 cells, arachidonic acid substrate
T1 construct: A cultured U-937 (humane lymphoma cell with Deposit No. 21593, obtained from Korean cell line bank) was centrifuged to collect the pellet; endogenous in cells; host or cells: U-937 (Korean cell line bank, Deposit No. 21593)
T1 sequence (P23219 24-599): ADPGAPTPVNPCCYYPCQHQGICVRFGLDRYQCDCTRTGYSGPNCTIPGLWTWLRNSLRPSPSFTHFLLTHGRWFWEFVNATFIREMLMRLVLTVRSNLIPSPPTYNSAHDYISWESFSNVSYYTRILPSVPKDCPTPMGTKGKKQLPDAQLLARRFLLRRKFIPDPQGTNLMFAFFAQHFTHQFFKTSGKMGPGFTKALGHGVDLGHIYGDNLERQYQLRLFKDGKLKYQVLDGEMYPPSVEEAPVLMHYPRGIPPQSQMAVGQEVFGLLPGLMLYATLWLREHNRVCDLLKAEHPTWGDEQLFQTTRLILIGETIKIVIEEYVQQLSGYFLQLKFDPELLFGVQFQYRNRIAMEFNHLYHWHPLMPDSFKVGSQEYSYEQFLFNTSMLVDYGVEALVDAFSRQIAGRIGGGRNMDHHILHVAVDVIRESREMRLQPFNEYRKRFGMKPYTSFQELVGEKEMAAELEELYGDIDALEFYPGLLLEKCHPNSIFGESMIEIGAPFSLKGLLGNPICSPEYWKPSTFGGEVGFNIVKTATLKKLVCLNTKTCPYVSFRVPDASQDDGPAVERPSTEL
Experimental: Then, the pellet was diluted with 1×HBSS(Hank's balanced salt solution) at the concentration of 1×10^6 cells/ml, and 1 ml of them was transferred into each of 12-well plates.
Arachidonic acid as a substrate was dissolved in ethanol to prepare a stock solution with a concentration of 10 mM, followed by diluting with 1×HBSS to prepare the solution of 1 mM. 10 μl of 1 mM Arachidonic acid solution was added to each of the treated wells and the mixture was cultured at 37° C. in CO2 incubator for 30 minutes. The cell solution of each well was collected in the centrifuge tube and centrifuged at 4° C., for 5 minutes at 10,000 rpm. As PGE2 existed in the supernatant separated from collected cell, the concentration of PGE2 was quantitated by using monoclonal kit from Cayman Chemicals, and the concentration of samples and DMSO vehicle were compared to estimate the inhibition ratio (%) of each compound against cyclooxygenase-1. Ultimately, the inhibition effect against the cyclooxygenase-1 enzyme was obtained from the result.

cyclooxygenase-2 = target: T2, cyclooxygenase-2 (Mus musculus, UniProt Q05769); assay: Inhibitive effects against cyclooxygenase-2 using Raw 264.7 (interferon/LPS-induced PGE2, EIA); type: cell-based; settings: Raw 264.7 cells, interferon + LPS, 18 hours
T2 construct: After seeding 2×10^6 cells of Raw 264.7 cell (obtained from Korean cell line bank, Deposit No. 40071) into each of 12-well plates; endogenous in cells; host or cells: Raw 264.7 (Korean cell line bank, Deposit No. 40071), aspirin-pretreated, induced with interferon and LPS
T2 sequence (Q05769 18-604): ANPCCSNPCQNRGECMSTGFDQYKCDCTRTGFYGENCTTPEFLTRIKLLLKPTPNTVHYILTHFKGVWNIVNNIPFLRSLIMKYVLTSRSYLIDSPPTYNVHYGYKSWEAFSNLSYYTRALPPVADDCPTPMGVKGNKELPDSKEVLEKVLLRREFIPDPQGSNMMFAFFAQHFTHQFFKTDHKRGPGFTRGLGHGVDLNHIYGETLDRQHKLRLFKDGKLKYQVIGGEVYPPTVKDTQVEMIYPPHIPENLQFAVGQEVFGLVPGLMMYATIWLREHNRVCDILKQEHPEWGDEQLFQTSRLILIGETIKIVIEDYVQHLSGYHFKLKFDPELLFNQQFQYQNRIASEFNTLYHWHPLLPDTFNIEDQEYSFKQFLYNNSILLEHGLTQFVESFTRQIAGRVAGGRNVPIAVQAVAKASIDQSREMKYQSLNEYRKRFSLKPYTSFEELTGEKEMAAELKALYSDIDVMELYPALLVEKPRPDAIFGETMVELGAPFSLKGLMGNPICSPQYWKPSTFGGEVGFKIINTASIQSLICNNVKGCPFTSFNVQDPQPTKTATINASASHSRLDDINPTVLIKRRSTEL
Experimental: In addition, the samples were treated with 100 units/ml of interferon ? and 100 ng/ml of lipopolysaccharide(LPS), and cultured for 18 hours. Then, the media was transferred to other test tubes and PGE 2 was quantitated by using EIA kit (Cayman Chemicals).
The % inhibition was calculated as follows, and the results were described in Table 1.
% inhibition={(PGE2 concentration compensated with interferon ? and LPS-PGE2 concentration compensated with analysis sample)/(PGE2 concentration compensated with interferon ? and LPS)}×100

Structure (SMILES)	Inhibitory effects of cyclooxygenase (COX): COX-1 (10 μM) (cyclooxygenase-1) [% inhibition]	Inhibitory effects of cyclooxygenase (COX): COX-2 (30 nM) (cyclooxygenase-2) [% inhibition]
Cc1snc(-c2ccc(F)cc2)c1-c1ccc(S(C)(=O)=O)cc1 [Example 9, 3-(4-fluorophenyl)-4-(4-methanesulfonyl)-5-methyl-isothiazole]	67.2	65.1
Cc1snc(-c2ccc(S(C)(=O)=O)cc2)c1-c1ccc(F)cc1 [Example 1, 4-(4-fluorophenyl)-3-(4-methanesulfonyl)-5-methyl-isothiazole]	29.8	63.7
Cc1snc(-c2ccc(F)cc2)c1-c1ccc(S(N)(=O)=O)cc1 [Example 5, 4-[3-(4-fluorophenyl)-5-methyl-isothiazole-4-yl]-benzenesulfonamide]	77.8	72.3
Cc1snc(-c2ccc(Br)cc2)c1-c1ccc(S(C)(=O)=O)cc1 [Example 7, 3-(4-bromophenyl)-4-(4-methanesulfonylphenyl)-5-methyl-isothiazole]	45.7	65.6
COc1ccc(-c2nsc(C)c2-c2ccc(S(N)(=O)=O)cc2)cc1 [Example 4, 4-[3-(4-methoxyphenyl)-5-methyl-isothiazole-4-yl]-benzenesulfonamide]	79.5	67.7
COc1ccc(-c2nsc(C)c2-c2ccc(S(C)(=O)=O)cc2)cc1 [Example 8, 3-(4-methoxyphenyl)-4-(4-methanesulfonylphenyl)-5-methyl-isothiazole]	80.1	76.4
Cc1snc(-c2ccccc2)c1-c1ccc(S(N)(=O)=O)cc1 [Example 2, 4-(5-methyl-3-phenyl-isothiazole-4-yl)-benzenesulfonamide]	35.5	60.2
Cc1snc(-c2ccccc2)c1-c1ccc(S(C)(=O)=O)cc1 [Example 6, 4-(4-methanesulfonylphenyl)-5-methyl-3-phenyl-isothiazole]	56.4	69.0
Cc1snc(-c2ccc(Br)cc2)c1-c1ccc(S(N)(=O)=O)cc1 [Example 3, 4-[3-(4-bromophenyl)-5-methyl-isothiazole-4-yl]-benzenesulfonamide]	38.8	58.5
